Source: US5218000A, “Therapeutic polyamine-amides” (priority 1988, dated 1993)
Where two headings read alike, the source gives them in different places.

Columns and labels:
[1] = tested on: invertebrate L-quisqualate sub-type L-glutamate receptor and its ion channel; assay: locust isolated retractor unguis nerve-muscle preparation, twitch amplitude on electrical stimulation; type: cell-based, Schistocerca gregaria; conditions: for IC50: locust retractor unguis muscle, electrically stimulated
Protocol: The compounds were assayed for biological activity on the isolated, retractor unguis nerve-muscle preparation of the locust Schistocerca gregaria (Usherwood, P.N.R and Machili, P. (1968) J. Exp. Biol., 49: 341.). Isolated muscle preparations were bathed continuously in standard locust saline in a bath of volume 250 μl. Twitch tension recordings of the muscle were made to electrical stimulation of its motor innervation supramaximal voltage, frequency 0.1 Hz).
The locust isolated retractor unguis nerve-muscle is a preparation with well characterised muscle receptors belonging to the quisqualate-sensitiveclass (Boden, P. et al., (1986) Brain Res., 385: 205.). This preparation has previously been employed to identify antogonists of excitatory amino acid receptors, (e.g. Bateman, A. et al., (1985) Brain Res., 339: 237 and Budd, T. et al., (1988) Brain Res., 448: 30.). Excitatory amino acid receptors are also believed to be of considerable importance in the mammal and for therapeutic applications.
The potency of this monoacylated spermine as an antagonist of the complex formed by the invertebrate L-quisqualate sub-type L-glutamate receptor and its ion channel was assayed using the electrically stimulated retractor unguis muscle of the locust (Schistocerca gregaria). Twitch amplitude was reduced ([…]) from control (100%) levels at the following concentrations: […]

quizqualate receptor = assay: rat cerebral cortex slice (wedge, grease-gap), AMPA-induced depolarisation response; type: cell-based, Wistar rats; conditions: rat brain slice
From the text: (§1) Coronal slices of cerebral cortex were cut with a Vibratome from the brains of freshly killed Wistar rats. Wedges of tissue were cut from either side of the mid-line to include the cortex and corpus callosum. The wedges were mounted in a grease-gap apparatus such that the cortex protruded into one compartment and the corpus callosum into the other compartment of a two-compartment bath, (Harrison N. L. & Simmonds M. A. (1985). Br. J. Pharmacol 84: 381-391.). Each compartment could be separately perfused with Krebs bicarbonate medium pre-gassed with 95% 02 /5% CO2 at room temperature. The volume of each compartment was 1.8 ml and the perfusion rate was 2 ml/min. The compartment containing the cortical part of the wedge was also gassed directly so that drugs could be injected into the bath with the perfusion pump stopped. This variant on the published method was adopted to minimise the amount of drug required. The potential difference between the two compartments was recorded continously via Ag/AgCl electrodes. […]
(§2) The potency of this monoacylated spermine was tested as an antagonist of NMDA- and AMPA- induced response in a rat brain slice model. Electrophysiologically recorded depolarisation responses were reduced from control levels (% inhibition) at the following concentrations: […]

NMDA receptor = assay: rat cerebral cortex slice (wedge, grease-gap), NMDA-induced depolarisation response; type: cell-based, Wistar rats; conditions: rat brain slice, Mg2+ omitted
From the text: as §1, §2

[2] = read-out: IC50 (reduction of twitch amplitude)
[3] = approximate, read-out: concentration at which an approximately 50% reduction of twitch amplitude was obtained

Structure (SMILES): NCCCNCCCCNCCCNC(=O)Cc1ccccc1O [Example 1, N-(2-Hydroxyphenylacetyl)-spermine]
- inhibition of twitch ([1]; 1.5 × 10^-4 M): 85%
- inhibition of twitch ([1]; 1.5 × 10^-5 M): 30%
- inhibition of twitch ([1]; 3 × 10^-4 M): 90%
- inhibition of twitch ([1]; 3 × 10^-5 M): 30%
- inhibition of twitch ([1]; 3 × 10^-6 M): 20%
- inhibition of twitch ([1]; 3 × 10^-7 M): 15%
- inhibition of twitch ([1]; 3 × 10^-8 M): 10%
- IC50 [1, 2]: 62 µM

Structure (SMILES): NCCCNCCCCNCCCNC(=O)Cc1cccc(O)c1 [Example 2, N-(3-Hydroxyphenylacetyl)-spermine]
- inhibition of twitch ([1]; 3 × 10^-7 M): 35%
- inhibition of twitch ([1]; 3 × 10^-8 M): 30%

Structure (SMILES): NCCCNCCCCNCCCNC(=O)Cc1ccc(O)cc1 [Example 3, N-(4-Hydroxyphenylacetyl)-spermine]
- inhibition of twitch ([1]; 2.95 × 10^-5 M): 74%
- inhibition of twitch ([1]; 4.43 × 10^-5 M): 91%
- inhibition of twitch ([1]; 5.9 × 10^-5 M): 96%
- inhibition of twitch ([1]; 5.9 × 10^-6 M): 25%
- inhibition of twitch ([1]; 5.9 × 10^-7 M): 9%
- IC50 [1, 2]: 8.7 µM
- % inhibition of AMPA-induced depolarisation response (quizqualate receptor; 10^-5 M): 22%
- % inhibition of AMPA-induced depolarisation response (quizqualate receptor; 10^-6 M): 0%
- % inhibition of NMDA-induced depolarisation response (NMDA receptor; 10^-5 M): 35%
- % inhibition of NMDA-induced depolarisation response (NMDA receptor; 10^-6 M): 29%

Structure (SMILES): NCCCNCCCCNCCCNC(=O)CCc1ccccc1O [Example 4, N-(2-Hydroxyphenylpropanoyl)-spermine]
- IC50 [1, 3]: ~50 µM

Structure (SMILES): NCCCNCCCCNCCCNC(=O)CCc1cccc(O)c1 [Example 5, N-(3-Hydroxyphenylpropanoyl)-spermine]
- inhibition of twitch ([1]; 1.08 × 10^-6 M): 15%
- inhibition of twitch ([1]; 1.08 × 10^-7 M): 10%

Structure (SMILES): NCCCNCCCCNCCCNC(=O)C=Cc1ccc(O)cc1 [Example 6, N-(4-Hydroxycinnamoyl)-spermine]
- inhibition of twitch ([1]; 10^-5 M): 70%
- inhibition of twitch ([1]; 10^-6 M): 56%
- inhibition of twitch ([1]; 10^-7 M): 33%
- inhibition of twitch ([1]; 10^-8 M): 24%
- inhibition of twitch ([1]; 10^-9 M): 18%
- inhibition of twitch ([1]; 10^-10 M): 4%
- IC50 [1, 2]: 60 µM

Structure (SMILES): NCCCNCCCCNCCCNC(=O)Cc1ccc(O)cc1O [Example 7, N-(2,4-Dihydroxyphenylacetyl)-spermine]
- IC50 [1, 3]: ~50 µM

Structure (SMILES): NCCCNCCCCNCCCNC(=O)Cc1ccc(O)c(O)c1 [Example 8, N-(3,4-Dihydroxyphenylacetyl)-spermine]
- IC50 [1, 3]: ~500 µM

Structure (SMILES): NCCCNCCCCNCCCNC(=O)Cc1cc(O)cc(O)c1 [Example 9, N-(3,5-Dihydroxyphenylacetyl)-spermine]
- inhibition of twitch ([1]; 1 07 × 10^-6 M): 25%
- inhibition of twitch ([1]; 1.07 × 10^-5 M): 45%

Structure (SMILES): NCCCNCCCCNCCCNC(=O)c1ccccc1O [Example 10]
- reduction of twitch amplitude from control level ([1]; 1.09×10^-5 M, 10.9 µM): approximately 25%

Structure (SMILES): NCCCNCCCCNCCCNC(=O)c1cccc(O)c1 [Example 11, N-(3-Hydroxybenzoyl)-spermine]
- reduction of twitch amplitude from control levels ([1]; 1.02×10^-5 M, 10.2 µM): approximately 40%

Structure (SMILES): NCCCNCCCCNCCCNC(=O)c1ccc(O)cc1 [Example 12, N-(4-Hydroxybenzoyl)-spermine]
- IC50 [1, 3]: ~50 µM

Structure (SMILES): NCCCNCCCCNCCCNC(=O)C=Cc1cccc(O)c1 [Example 13, N-(3-Hydroxycinnamoyl)-spermine]
- reduction of twitch amplitude from control levels ([1]; 9.2×10^-7 M, 0.92 µM): approximately 25%

Structure (SMILES): NCCCNCCCCNCCCNC(=O)Cc1ccc(O)c(F)c1 [Example 14, N-(3-Fluoro-4-hydroxyphenylacetyl)-spermine]
- IC50 [1, 3]: ~500 µM

Structure (SMILES): COc1ccccc1CC(=O)NCCCNCCCCNCCCN [Example 15, N-(2-Methoxyphenylacetyl)-spermine]
- IC50 [1, 3]: ~500 µM

Structure (SMILES): COc1ccc(CC(=O)NCCCNCCCCNCCCN)cc1 [Example 16, N-(4-Methoxyphenylacetyl)-spermine]
- IC50 [1, 3]: ~500 µM

Structure (SMILES): COc1ccccc1CC(=O)NCCCNCCCNCCCN [Example 17, N-(2-Methoxyphenylacetyl)-N',N"-bis(3-aminopropyl)-1,3-propanediamine]
- IC50 [1, 3]: ~900 µM

Structure (SMILES): COc1ccc(CC(=O)NCCCNCCCNCCCN)cc1 [Example 18, N-(4-Methoxyphenylacetyl)-N',N"-bis(3-aminopropyl)-1,3-propanediamine]
- IC50 [1, 3]: ~900 µM

Structure (SMILES): NCCCNCCCNCCCNC(=O)Cc1ccccc1O [Example 19, N-(2-Hydroxyphenylacetyl)-N',N"-bis(3-aminopropyl)-1,3-propanediamine]
- IC50 [1, 3]: ~900 µM

Structure (SMILES): NCCCNCCCNCCCNC(=O)Cc1cccc(O)c1 [Example 20, N-(3-Hydroxyphenylacetyl)-N',N"-bis(3-aminopropyl)-1,3-propanediamine]
- reduction of twitch amplitude from control levels ([1]; 1.04×10^-4 M, 104 µM): approximately 60%

Structure (SMILES): NCCCNCCCNCCCNC(=O)Cc1ccc(O)cc1 [Example 21, N-(4-Hydroxyphenylacetyl)-N',N"-bis(3-aminopropyl)-1,3-propanediamine]
- reduction of twitch amplitude from control levels ([1]; 1×10^-4 M, 100 µM): approximately 30%
- IC50 [1, 3]: ~900 µM
